Test: Body weight, 4-week subacute toxicity study
Type: in vivo, Sprague Dawley (SD) rats
Conditions: female rats
Procedure: Body weight was recorded twice a week during the dosing phase and then once a week during the recovery phase. Terminal body weight was recorded before each necropsy for calculating the organ weight ratios.

[1] = 0.6 mg/kg/day, Prior to 1st dosing
[2] = 1.2 mg/kg/day, Prior to 1st dosing
[3] = 2.4 mg/kg/day, Prior to 1st dosing

Q: With `Fc1ccc([C@]2(CCNCc3cccc(Cl)c3)CCO[C@]3(CCOC3)C2)nc1` [LPM3480392] as the compound, how does the Body weight (0.6 mg/kg/day, Day 6) read?
A: 194.0 ± 11.4 g

Q: And the “Body weight change rate” value (0.6 mg/kg/day, Day 6)?
A: 4.64%

Q: What about the Body weight (0.6 mg/kg/day, Day 9) of the same compound?
A: 201.1 ± 13.7 g

Q: And the “Body weight change rate” value (0.6 mg/kg/day, Day 9)?
A: 5.62%

Q: And the Body weight (0.6 mg/kg/day, Day 13)?
A: 209.5 ± 13.4 g

Q: What about the “Body weight change rate” value (0.6 mg/kg/day, Day 13) of the same compound?
A: 7.05%

Q: And the Body weight (0.6 mg/kg/day, Day 16)?
A: 214.4 ± 13.2 g

Q: What about the “Body weight change rate” value (0.6 mg/kg/day, Day 16) of the same compound?
A: 6.19%

Q: What about the Body weight (0.6 mg/kg/day, Day 20) of the same compound?
A: 224.2 ± 15.1 g

Q: And the “Body weight change rate” value (0.6 mg/kg/day, Day 20)?
A: 6.91%

Q: And the Body weight (0.6 mg/kg/day, Day 23)?
A: 228.1 ± 15.3 g

Q: And the “Body weight change rate” value (0.6 mg/kg/day, Day 23)?
A: 5.65%

Q: What about the Body weight (0.6 mg/kg/day, Day 27) of the same compound?
A: 236.2 ± 15.3 g

Q: What about the “Body weight change rate” value (0.6 mg/kg/day, Day 27) of the same compound?
A: 8.05%

Q: And the Body weight [1]?
A: 176.9 ± 7.3 g

Q: And the “Body weight change rate” value [1]?
A: −0.67%

Q: And the Body weight (0.6 mg/kg/day, Recovery day 5)?
A: 243.5 ± 9.3 g

Q: And the “Body weight change rate” value (0.6 mg/kg/day, Recovery day 5)?
A: 5.96%

Q: And the Body weight (0.6 mg/kg/day, Recovery day 12)?
A: 251.6 ± 10.2 g

Q: What about the “Body weight change rate” value (0.6 mg/kg/day, Recovery day 12) of the same compound?
A: 6.38%

Q: What about the Body weight (0.6 mg/kg/day, Recovery day 19) of the same compound?
A: 258.8 ± 12.5 g

Q: What about the “Body weight change rate” value (0.6 mg/kg/day, Recovery day 19) of the same compound?
A: 2.70%

Q: And the Body weight (0.6 mg/kg/day, Recovery day 26)?
A: 265.5 ± 15.7 g

Q: What about the “Body weight change rate” value (0.6 mg/kg/day, Recovery day 26) of the same compound?
A: 3.11%

Q: What about the Body weight (1.2 mg/kg/day, Day 6) of the same compound?
A: 194.9 ± 10.5 g

Q: And the “Body weight change rate” value (1.2 mg/kg/day, Day 6)?
A: 5.12%

Q: And the Body weight (1.2 mg/kg/day, Day 9)?
A: 200.1 ± 12.1 g

Q: What about the “Body weight change rate” value (1.2 mg/kg/day, Day 9) of the same compound?
A: 5.09%

Q: What about the Body weight (1.2 mg/kg/day, Day 13) of the same compound?
A: 215.3 ± 11.3 g

Q: What about the “Body weight change rate” value (1.2 mg/kg/day, Day 13) of the same compound?
A: 10.02%

Q: What about the Body weight (1.2 mg/kg/day, Day 16) of the same compound?
A: 218.9 ± 12.3 g

Q: And the “Body weight change rate” value (1.2 mg/kg/day, Day 16)?
A: 8.42%

Q: And the Body weight (1.2 mg/kg/day, Day 20)?
A: 221.5 ± 14.8 g

Q: What about the “Body weight change rate” value (1.2 mg/kg/day, Day 20) of the same compound?
A: 5.63%

Q: And the Body weight (1.2 mg/kg/day, Day 23)?
A: 232.4 ± 16.4 g

Q: What about the “Body weight change rate” value (1.2 mg/kg/day, Day 23) of the same compound?
A: 7.64%

Q: What about the Body weight (1.2 mg/kg/day, Day 27) of the same compound?
A: 237.2 ± 15.4 g

Q: And the “Body weight change rate” value (1.2 mg/kg/day, Day 27)?
A: 8.51%

Q: What about the Body weight [2] of the same compound?
A: 175.3 ± 7.7 g

Q: What about the “Body weight change rate” value [2] of the same compound?
A: −1.57%

Q: And the Body weight (1.2 mg/kg/day, Recovery day 5)?
A: 237.7 ± 13.0 g

Q: What about the “Body weight change rate” value (1.2 mg/kg/day, Recovery day 5) of the same compound?
A: 3.44%

Q: What about the Body weight (1.2 mg/kg/day, Recovery day 12) of the same compound?
A: 244.8 ± 13.2 g

Q: And the “Body weight change rate” value (1.2 mg/kg/day, Recovery day 12)?
A: 3.51%

Q: What about the Body weight (1.2 mg/kg/day, Recovery day 19) of the same compound?
A: 259.9 ± 16.5 g

Q: And the “Body weight change rate” value (1.2 mg/kg/day, Recovery day 19)?
A: 3.13%

Q: And the Body weight (1.2 mg/kg/day, Recovery day 26)?
A: 261.8 ± 22.7 g

Q: What about the “Body weight change rate” value (1.2 mg/kg/day, Recovery day 26) of the same compound?
A: 1.67%

Q: And the Body weight (2.4 mg/kg/day, Day 6)?
A: 194.7 ± 11.9 g

Q: And the “Body weight change rate” value (2.4 mg/kg/day, Day 6)?
A: 5.02%

Q: What about the Body weight (2.4 mg/kg/day, Day 9) of the same compound?
A: 198.8 ± 14.7 g

Q: And the “Body weight change rate” value (2.4 mg/kg/day, Day 9)?
A: 4.41%

Q: What about the Body weight (2.4 mg/kg/day, Day 13) of the same compound?
A: 211.2 ± 13.0 g

Q: What about the “Body weight change rate” value (2.4 mg/kg/day, Day 13) of the same compound?
A: 7.92%

Q: What about the Body weight (2.4 mg/kg/day, Day 16) of the same compound?
A: 209.1 ± 13.2 g

Q: And the “Body weight change rate” value (2.4 mg/kg/day, Day 16)?
A: 3.57%

Q: And the Body weight (2.4 mg/kg/day, Day 20)?
A: 220.8 ± 15.5 g

Q: And the “Body weight change rate” value (2.4 mg/kg/day, Day 20)?
A: 5.29%

Q: And the Body weight (2.4 mg/kg/day, Day 23)?
A: 221.7 ± 19.8 g

Q: What about the “Body weight change rate” value (2.4 mg/kg/day, Day 23) of the same compound?
A: 2.69%

Q: What about the Body weight (2.4 mg/kg/day, Day 27) of the same compound?
A: 230.9 ± 19.3 g

Q: And the “Body weight change rate” value (2.4 mg/kg/day, Day 27)?
A: 5.63%

Q: What about the Body weight [3] of the same compound?
A: 179.1 ± 8.3 g

Q: What about the “Body weight change rate” value [3] of the same compound?
A: 0.56%

Q: And the Body weight (2.4 mg/kg/day, Recovery day 5)?
A: 230.1 ± 19.1 g

Q: And the “Body weight change rate” value (2.4 mg/kg/day, Recovery day 5)?
A: 0.13%

Q: And the Body weight (2.4 mg/kg/day, Recovery day 12)?
A: 241.1 ± 21.0 g

Q: What about the “Body weight change rate” value (2.4 mg/kg/day, Recovery day 12) of the same compound?
A: 1.95%

Q: What about the Body weight (2.4 mg/kg/day, Recovery day 19) of the same compound?
A: 253.1 ± 25.8 g

Q: And the “Body weight change rate” value (2.4 mg/kg/day, Recovery day 19)?
A: 0.44%

Q: And the Body weight (2.4 mg/kg/day, Recovery day 26)?
A: 261.1 ± 25.5 g

Q: What about the “Body weight change rate” value (2.4 mg/kg/day, Recovery day 26) of the same compound?
A: 1.40%
